Target: T1, Pfu DNA Polymerase II (Pyrococcus furiosus, UniProt P81409+P81412)
T1 construct: made in house; host or cells: Escherichia coli JM109/pFU1001 (FERM BP-5579)
T1 sequence (P81409 1-1263): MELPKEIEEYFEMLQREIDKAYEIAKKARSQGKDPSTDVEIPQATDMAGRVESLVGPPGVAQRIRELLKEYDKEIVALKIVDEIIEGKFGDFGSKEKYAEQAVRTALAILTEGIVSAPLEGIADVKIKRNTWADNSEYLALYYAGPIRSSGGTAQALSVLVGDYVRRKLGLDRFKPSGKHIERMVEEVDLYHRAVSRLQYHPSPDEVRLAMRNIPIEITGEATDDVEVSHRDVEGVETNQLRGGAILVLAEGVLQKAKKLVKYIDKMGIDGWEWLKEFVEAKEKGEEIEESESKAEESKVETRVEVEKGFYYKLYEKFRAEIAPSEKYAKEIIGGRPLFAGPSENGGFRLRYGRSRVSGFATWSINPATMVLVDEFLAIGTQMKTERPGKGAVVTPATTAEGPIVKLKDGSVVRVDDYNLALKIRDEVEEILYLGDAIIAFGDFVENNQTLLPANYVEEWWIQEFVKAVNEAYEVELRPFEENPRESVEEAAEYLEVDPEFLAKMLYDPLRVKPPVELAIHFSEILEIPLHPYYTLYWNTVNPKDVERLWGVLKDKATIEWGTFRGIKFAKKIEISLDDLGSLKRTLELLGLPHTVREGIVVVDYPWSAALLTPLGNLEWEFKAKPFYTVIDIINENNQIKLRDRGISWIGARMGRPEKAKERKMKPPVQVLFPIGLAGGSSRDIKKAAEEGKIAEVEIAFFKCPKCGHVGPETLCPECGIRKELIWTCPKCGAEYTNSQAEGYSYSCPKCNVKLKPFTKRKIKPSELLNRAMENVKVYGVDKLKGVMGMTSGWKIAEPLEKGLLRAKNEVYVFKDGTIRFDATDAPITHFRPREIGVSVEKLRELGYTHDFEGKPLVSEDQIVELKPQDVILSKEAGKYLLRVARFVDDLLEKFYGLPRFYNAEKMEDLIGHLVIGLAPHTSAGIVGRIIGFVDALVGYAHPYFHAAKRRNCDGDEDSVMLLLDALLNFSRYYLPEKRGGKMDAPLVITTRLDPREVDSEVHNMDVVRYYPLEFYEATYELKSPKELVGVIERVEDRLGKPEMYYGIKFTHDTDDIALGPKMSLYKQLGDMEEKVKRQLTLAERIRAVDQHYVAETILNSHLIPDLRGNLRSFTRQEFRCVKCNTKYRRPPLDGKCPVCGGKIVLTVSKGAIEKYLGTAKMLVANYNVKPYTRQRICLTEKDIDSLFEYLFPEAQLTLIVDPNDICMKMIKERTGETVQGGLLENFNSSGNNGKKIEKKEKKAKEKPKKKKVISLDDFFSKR
T1 sequence (P81412 1-613): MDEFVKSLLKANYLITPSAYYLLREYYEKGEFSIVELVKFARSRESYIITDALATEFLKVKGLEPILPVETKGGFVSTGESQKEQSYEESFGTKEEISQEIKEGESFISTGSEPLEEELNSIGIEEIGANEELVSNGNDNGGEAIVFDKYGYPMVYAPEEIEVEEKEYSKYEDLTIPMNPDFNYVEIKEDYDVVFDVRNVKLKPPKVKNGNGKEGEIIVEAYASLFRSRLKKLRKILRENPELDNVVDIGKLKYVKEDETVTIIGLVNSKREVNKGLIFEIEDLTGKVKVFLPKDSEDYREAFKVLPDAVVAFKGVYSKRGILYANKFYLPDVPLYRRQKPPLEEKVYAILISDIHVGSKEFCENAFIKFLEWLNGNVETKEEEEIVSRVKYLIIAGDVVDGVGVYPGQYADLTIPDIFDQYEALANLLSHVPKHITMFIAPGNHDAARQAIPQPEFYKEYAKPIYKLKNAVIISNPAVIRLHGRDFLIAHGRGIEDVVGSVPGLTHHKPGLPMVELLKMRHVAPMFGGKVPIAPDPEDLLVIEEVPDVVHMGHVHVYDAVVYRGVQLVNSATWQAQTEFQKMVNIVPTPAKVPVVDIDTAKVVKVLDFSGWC
Test: PCR with Pfu DNA Polymerase II in the presence of acidic substances (λDNA template)
Type: biochemical
Settings: 0.5 kb fragment; 100 pg λDNA, primers λ1/λ2, 25 cycles 98°C 5 s–66°C 15 s; amount added 1 μg
Description: A reaction mixture comprising λDNA as a template, primers λ1 and λ3 as a primer pair, and Pfu DNA Polymerase II as DNA polymerase was prepared, and PCR was carried out. The composition of the reaction mixture is as follows.
10 mM Tris-hydrochloric acid (pH 9.2), 75 mM potassium chloride, 6 mM magnesium chloride, 0.4 mM each of dATP, dCTP, dGTP and dTTP, 0.01% BSA, 1.25 U of Pfu DNA Polymerase II, 500 pg of λDNA, and 5 pmol each of primers λ1 and λ3 (a final volume being 25 μl). […]
Using the sulfated-fucose-containing Polysaccharide-F obtained in Example 6 described above, dextran sulfate powder (manufactured by Onco), or sodium alginate (100 to 150 centipoises, manufactured by Wako Pure Chemicals), the effects of these acidic substances on the activity of Pfu DNA Polymerase II were examined. A reaction mixture comprising λDNA as a template, primers λ1 and λ2 as a primer pair, and Pfu DNA Polymerase II as DNA polymerase was prepared, and PCR was carried out. The composition of the reaction mixture is as follows.
10 mM Tris-hydrochloric acid, pH 9.2, 75 mM potassium chloride, 6 mM magnesium chloride, 0.4 mM each of dATP, dCTP, dGTP and dTTP, 0.01% BSA, 1.25 U of Pfu DNA Polymerase II, 100 pg of λDNA, and 5 pmol each of primers λ1 and λ2 (a final volume being 25 μl). Further, 10 ng of the sulfated-fucose-containing polysaccharide-F, 10 ng of dextran sulfate powder, or 1 μg of sodium alginate was respectively added to the above reaction mixture.
The reaction in 25 cycles was carried out for each of these reaction mixtures, wherein one cycle of reaction comprises a process consisting of 98° C., 5 seconds—66° C., 15 seconds. Thereafter, 5 μl of the resulting reaction mixture was subjected to electrophoresis on 1% agarose gel containing ethidium bromide in an amount of 0.00005%, whereby an amplified fragment was confirmed.
Further, studies were conducted on the effects of the sulfated-fucose-containing polysaccharide-F obtained in Example 6 described above, the sulfated-fucose-containing polysaccharide-U obtained in Example 7 described above, or sodium polyglutamate (manufactured by Sigma) as an acidic substance. A reaction mixture for PCR was prepared in the same manner as described above except for changing the amount of template λDNA to 500 pg and the primer pairs to primers λ1 and λ3. Five nanograms of the sulfated-fucose-containing polysaccharide-F, 5 ng, 10 ng, 20 ng or 30 ng each of the sulfated-fucose-containing polysaccharide-U, or 250 ng, 500 ng, 750 ng or 1000 ng each of sodium polyglutamate was respectively added to the above reaction mixture.
The reaction was carried out in 30 cycles, wherein one cycle of reaction comprises a process consisting of 98° C., 5 seconds—66° C., 15 seconds. After the termination of the reaction, 5 μl of the resulting reaction mixture was subjected to electrophoresis on 1% agarose gel containing ethidium bromide in an amount of 0.00005%, whereby an amplified fragment was confirmed.
Using the sulfated-fucose-containing polysaccharide-F obtained in Example 6 described above, the effects on the activity of Pfu DNA Polymerase II were examined. A reaction mixture comprising λDNA as a template, primers λ1 and λ2 as a primer pair, and Pfu DNA Polymerase II as DNA polymerase was prepared, and PCR was carried out. The composition of the reaction mixture is as follows.
10 mM Tris-hydrochloric acid, pH 9.2, 75 mM potassium chloride, 6 mM magnesium chloride, 0.4 mM each of dATP, dCTP, dGTP and dTTP, 0.01% BSA, 1.25 U of Pfu DNA Polymerase II, 500 pg of λDNA, and 5 pmol each of primers λ1 and λ2 (a final volume being 25 μl). Further, 10 ng of the sulfated-fucose-containing polysaccharide-F was respectively added to the above reaction mixture.
The reaction in 30 cycles was carried out for each of these reaction mixtures, wherein one cycle of reaction comprises a process consisting of 98° C., 5 seconds—66° C., 15 seconds. […]

sodium alginate
Amplification Results: + (Amplification being observed)

Source: patent US8367328B2, “Method for synthesizing DNA” (Takara Bio Inc., priority 1998, dated 2013)
